Experimental data published in patent US11389433B2, “BRD4 inhibitor treatment of IgE-mediated diseases” (THE BOARD OF REGENTS OF THE UNIVERSITY OF TEXAS SYSTEM, priority 2018, dated 2022).

Tests used:
[1] = test system: rCDE-challenged C57BL/6 mice; assay: Repetitive cat dander extract (rCDE) challenge, airway remodeling model; format: in vivo, mouse; settings: 10 mg/kg ip; for modified Ashcroft score: rCDE alone 8.8±2 (IKKi study), 9±2 (ZL0454 study)
Procedure: 12 week old male wild-type (WT) C57BL/6 mice were purchased from Jackson Laboratory (Bar Harbor, Me.). CDE (Stallergenes/Greer laboratories, 20 μg/dose) was administered to naïve C57BL6/J mice every other day via the intranasal route for a total of 15 administrations (n=5 mice/group). In the IKK inhibitor experiments, mice were either pretreated with vehicle or the selective IKK inhibitor [BMS345541, 10 mg/kg via the intraperitoneal (ip) route]. […] Mice were sacrificed 12 d later to allow resolution of the acute inflammation.
Formalin-fixed lungs were embedded in paraffin, sectioned at a 4 μm thickness, and stained with hematoxylin and eosin or Masson's trichrome. Microscopy was performed on a NIKON Eclipse Ti System 16, 17. Pulmonary fibrosis was graded using a modified Ashcroft scoring method 16, 17. In brief, to determine the fibrosis histopathology score for the lung of each mouse, the entire left and right longitudinal lung sections were scored separately (score range, 0 to 9) at ×100 magnification, and the scores were combined (total score range, 0 to 18)^16, 17.
Bronchoalveolar lavage and tissue processing. Animals were anesthetized, bronchoalveolar lavage fluid (BALF) was obtained and the mice sacrificed. Lung tissues were taken for total RNA extraction or fixed for histological examination. For histological examination, lungs were inflated under 25 cm H2O pressure with 10% (v/v) neutral buffered formalin through the tracheal cannula and immersed in 10% buffered formalin for at least 24 h. After being processed into paraffin blocks, the lungs were cut into 5-μm sections and stained with Masson Trichrome to assess fibrotic changes. Microscopy was performed on a NIKON Eclipse Ti System^75.
Quantification of accumulated mucin was assessed by 2 investigators who were blind to the treatment groups on a subjective scale of 0, 1, 2, 3, and 4 corresponding to none, mild, moderate, marked, or severe mucin deposition, respectively. Data were expressed as means of scores recorded by 2 blinded investigators^76,77.
(§1) Cellular recruitment into the airway lumen was assessed in the collected bronchoalveolar lavage fluid (BALF) of mice. Lungs were perfused twice with 1 mL of sterile PBS (pH 7.4) and total cell counts determined by trypan blue staining and counting using a hemocytometer. Differential cell counts were performed on cytocentrifuge preparations (Cytospin 3; Thermo Shandon, Pittsburgh, Pa.) stained with Wright-Giemsa. A total of 300 cells were counted per sample using light microscopy.
(§2) For gene expression analyses, 0.1 μg of cDNA product from reverse transcription of total RNA was amplified using SYBR Green Supermix (Bio-Rad) and gene-specific primers as previously described^75, 78. Quantification of relative changes in gene expression was calculated using the ΔΔCt method^79,80 and expression as the fold change between experimental and control samples was normalized to internal control peptidylprolyl isomerase A (PPI1A)/cyclophilin A.
Confocal Immunofluorescence assays of lung sections were performed on formalin-fixed, paraffin-embedded sections after rehydration using serial concentrations of ethanol. Antigen retrieval was performed in Tris-EDTA buffer (pH 9.0). Lung sections were blocked using 0.1% Triton-X, 5% normal goat serum in phosphate buffered saline (PBS) and incubated with primary antibodies of rabbit anti-p276RelA, pIKKα/β, SNAIL H3K122ac, COL1A, VIM, FN1, and αSMA (Abcam, 1:100 dilution) overnight at 4° C. Normal anti-rabbit IgG were used as staining specificity controls. After washing, lung sections were stained with Alexa Fluor 488- or 568-conjugated goat anti-rabbit IgG (Life Technologies) in incubation buffer for 1 h. Nuclei were stained with 4′, 6-diamidino-2-phenylindole (DAPI) (5 μg/ml in PBS, 20 min) and mounted slides visualized with a LSM510 fluorescence confocal microscope, magnification 63×.
Total IgE in serum were measured using Sandwich ELISA. […]

[2] = test system: CIG5; assay: Inhibition of CIG5 induction in hSAECs; format: cell-based; settings: Homo sapiens
[3] = test system: IL-6; assay: Inhibition of IL-6 induction in hSAECs; format: cell-based; settings: Homo sapiens
[4] = cited from earlier work
[5] = test system: hSAECs; assay: CDE-induced mesenchymal transition of hSAECs; format: cell-based, human; settings: CDE 20 μg/mL 15 d; 10 μM
Procedure: Immortalized human small airway epithelial cells (hSAECs) were previously described^25. hSAECs were grown in SAGM small airway epithelial cell growth medium (Lonza, Walkersville, Md.) in a humidified atmosphere of 5% CO2. BMS345541 was purchased from Sigma Aldrich. CDE was purchased from Greer Laboratories.
as §2
hSAECs were incubated ±CDE (20 μg/mL) for 15 d, re-plated on glass cover slips pretreated with rat tail collagen (Roche Applied Sciences), and fixed with 4% paraformaldehyde in PBS. Afterwards, the fixed cells were stained with Alexa Fluor® 488- or 568-phalloidin (Life Technologies) for cytoplasmic distribution of F-actin (green or red color) and also counterstained with 4′,6-diamidino-2-phenylindole (DAPI) for nuclear staining (blue color). The cells were visualized with a Nikon fluorescence confocal microscope at a magnification of 63×^75, 78.
For immunofluorescence staining, hSAECs were plated on rat tail collagen-treated cover glasses and stimulated with CDE for the indicated times. The cells were fixed with 4% paraformaldehyde in PBS and incubated with 0.1 m ammonium chloride for 10 min. […] After washing, cells were stained with Alexa Fluor 488- or 568-conjugated goat anti-rabbit IgG (Life Technologies) respectively in incubation buffer for 1 h, then visualized with a LSM510 fluorescence confocal microscope, magnification 63×.

[6] = 3 months of administration; cited from earlier work
[7] = test system: acute CDE-challenged mice; assay: Acute intranasal CDE challenge, BALF cell counts; format: in vivo, mouse; settings: 10 mg/kg; within 24 h of treatment
From the text: FIG. 12. BRD4 pathway mediates CDE-induced EMT of airway epithelial cells. […] A, Q-RT-PCR for CDH1 mRNA expression. #, p<0.01, compared to without CDE, n=3. B, Q-RT-PCR for SNAI1 mRNA expression. *, p<0.01, compared to CDE alone, n=3. C, Q-RT-PCR for COL1A, FN1, and VIM mRNA expression. D, Q-RT-PCR for IL6 mRNA expression. E, Confocal immunofluorescence microscopy for phalloidin (green color), H3K122-Ac (red color), SNAI1 (green color), and VIM (red color) counterstained with DAPI (blue color) in WT hSAECs in absence or presence of CDE (20 μg/mL, 15d) stimulation. Images were acquired at 63×. At right are quantifications of relative fluorescence intensities of phalloidin, H3K122ac, SNAIL and VIM, * p<0.01, n=5. […] Shown are total, macrophage, and neutrophil counts in BALF 24 h later after CDE challenge. G. Total serum IgE was quantitated for each chronic treatment group **, p<0.01, n=5.
as §1

[8] = molecular target: BRD4 (Homo sapiens, UniProt O60885); settings: in cellulo; cited from earlier work

Cc1ccc2nc(NCCN)c3ncc(C)n3c2c1 [IKKi, reference compound]
total leukocytes in the BALF ([1]; rCDE 15 intranasal challenges, rCDE alone 1,700×10^3): 450×10^3 cells/ml | CDE-specific circulating IgE (allergic sensitization) ([1]; rCDE): completely blocked | PAS staining (mucin, mucous metaplasia) ([1]; rCDE): blocked | fibrosis / collagen formation and hypercellularity (Masson trichrome) ([1]; rCDE): reduced the fibrosis and hypercellularity, although not completely in the alveoli | mesenchymal and ECM gene mRNA expression in total lung RNA (Q-RT-PCR) ([1]; rCDE): inhibited | mucosal mesenchymal and ECM proteins (SNAI1, VIM, COL1A, FN1), immunofluorescence ([1]; rCDE): completely blocked | subepithelial αSMA+/COL1+ myofibroblast population ([1]; rCDE): blocked | hydroxyproline concentration in BALF and lung tissue ([1]; rCDE, rCDE alone 2-fold increase): normalized | modified Ashcroft score ([1]; rCDE): 2±1 | phospho-IKKα/β abundance in the airway epithelial layer ([1]; rCDE, rCDE alone 9-fold increase): reduced to control values | mucosal phospho-Ser 276 RelA formation ([1]; rCDE, rCDE alone 14-fold increase): blocked

Cc1cc(/N=N/c2ccc3c(c2)CCC(=O)N3)c(N)cc1O [ZL0420]
IC50 [2]: 420 nM

COc1cc(OC)c2c(=O)cc(-c3cc(C)c(OCCO)c(C)c3)oc2c1 [ZL0468]
IC50 [2]: 2600 nM | IC50 [3]: 2800 nM

CCC(=O)O[C@]1(C(=O)SCF)[C@H](C)C[C@H]2[C@@H]3C[C@H](F)C4=CC(=O)C=C[C@]4(C)[C@@]3(F)[C@@H](O)C[C@@]21C [Fluticasone propionate]
solubility in dimethyl sulfoxide and dimethylformamide [4]: freely soluble | solubility in methanol and 95% ethanol [4]: slightly soluble | solubility in water ([4]; water): practically insoluble

Cc1cc(/N=N/c2ccc(S(=O)(=O)NC3CCCC3)cc2)c(N)cc1O [ZL0454, (E)-4-((2-Amino-4-hydroxy-5-methylphenyl)diazenyl)-N-cyclopentylbenzenesulfonamide]
CDE-induced inhibition of CDH1 mRNA [5]: blocked | CDE-induced upregulation of SNAI1, FN1, VIM, COL1A and IL6 mRNAs [5]: significantly blocked | formation of actin stress fibers, H3K122 Ac, SNAI1 and VIM expression (confocal immunofluorescence) [5]: prevented | CDE-specific circulating IgE (allergic sensitization) ([1]; rCDE): completely blunted allergic responses | PAS staining (mucin, mucous metaplasia) ([1]; rCDE): reduced | RelA-BRD4 binding in lung sections (proximity ligation assay) ([1]; rCDE): disrupted | fibrosis / collagen formation and hypercellularity (Masson trichrome) ([1]; rCDE): reduced collagen formation and hypercellularity | mesenchymal and ECM gene mRNA expression in total lung RNA (Q-RT-PCR) ([1]; rCDE): BRD4-dependent | mucosal H3K122 Ac staining (BRD4 HAT activity) ([1]; rCDE): inhibited | mucosal mesenchymal and ECM proteins (SNAI1, VIM, COL1A, FN1), immunofluorescence ([1]; rCDE): inhibited | subepithelial αSMA+/COL1+ myofibroblast population ([1]; rCDE): blocked | hydroxyproline content in the lung ([1]; rCDE, rCDE alone 0.65±1): 0.35 ± 0.4 µg/mg | modified Ashcroft score ([1]; rCDE): 1.5±0.5 | hydroxyproline content in BALF ([1]; rCDE, rCDE alone 130±20): 70 ± 10 ng/mL | tolerability / apparent toxicity [6]: well tolerated over 3 months of administration without apparent toxicity | acute CDE-induced BALF neutrophilia [7]: blocked | BRD4 binding to Pol II and histones [8]: disrupts
